Reference: patent publication US9302999B2, “Substituted triazoles as herbicides” (E. I. DU PONT DE NEMOURS AND COMPANY, priority 2012, dated 2016)

Tests used:
Assay type in all cases: in vivo
[1] = test system: barnyardgrass (Echinochloa crus-galli); experiment: Test A pre-/postemergence: barnyardgrass; settings: for Barnyardgrass plant response rating: Postemergence; for Plant response rating, Barnyardgrass: Preemergence
Summary of the method: (§1)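 Visual 0–100 injury ratings (0 no effect, 100 complete control) taken about ten days after treatment, relative to untreated controls. Preemergence treatment was a directed soil spray; postemergence plants were 2–10 cm tall at one- to two-leaf stage. Soil: loam/sand blend.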

[2] = test system: crabgrass, large (large crabgrass, Digitaria sanguinalis); experiment: Test A pre-/postemergence: crabgrass, large; settings: for Crabgrass, Large plant response rating: Postemergence; for Plant response rating, Crabgrass, Large: Preemergence
Summary of the method: as §1

[3] = test system: foxtail, giant (giant foxtail, Setaria faberii); experiment: Test A pre-/postemergence: foxtail, giant; settings: for Foxtail, Giant plant response rating: Postemergence; for Plant response rating, Foxtail, Giant: Preemergence
Summary of the method: as §1

[4] = test system: morningglory (Ipomoea spp.); experiment: Test A pre-/postemergence: morningglory; settings: for Morningglory plant response rating: Postemergence; for Plant response rating, Morningglory: Preemergence
Summary of the method: as §1

[5] = test system: pigweed (Amaranthus retroflexus); experiment: Test A pre-/postemergence: pigweed; settings: for Pigweed plant response rating: Postemergence; for Plant response rating, Pigweed: Preemergence
Summary of the method: as §1

[6] = test system: velvetleaf (Abutilon theophrasti); experiment: Test A pre-/postemergence: velvetleaf; settings: for Velvetleaf plant response rating: Postemergence; for Plant response rating, Velvetleaf: Preemergence
Summary of the method: as §1

[7] = test system: wheat (Triticum aestivum); experiment: Test A pre-/postemergence: wheat; settings: for Wheat plant response rating: Postemergence; for Plant response rating, Wheat: Preemergence
Summary of the method: as §1

corn (Zea mays) = experiment: Test A pre-/postemergence: corn; settings: for Corn plant response rating: Postemergence; for Plant response rating, Corn: Preemergence
Summary of the method: as §1

rice (Oryza sativa) = experiment: Test C flooded paddy test: rice; settings: scale 0 to 100 (0 no effect, 100 complete control)
Description: (§2) Plant species in the flooded paddy test consisted of rice (Oryza sativa), sedge, umbrella (small-flower umbrella sedge, Cyperus difformis), ducksalad (Heteranthera limosa) and barnyardgrass (Echinochloa crus-galli) grown to the 2-leaf stage for testing. At time of treatment, test pots were flooded to 3 cm above the soil surface, treated by application of test compounds directly to the paddy water, and then maintained at that water depth for the duration of the test.
(§3) Treated plants and controls were maintained in a greenhouse for 13 to 15 days, after which time all species were compared to controls and visually evaluated. Plant response ratings, summarized in Table C, are based on a scale of 0 to 100 where 0 is no effect and 100 is complete control. A dash (-) response means no test result.

[8] = test system: sedge, umbrella (small-flower umbrella sedge, Cyperus difformis); experiment: Test C flooded paddy test: sedge, umbrella; settings: scale 0 to 100 (0 no effect, 100 complete control)
Description: as §2, §3

[9] = test system: ducksalad (Heteranthera limosa); experiment: Test C flooded paddy test: ducksalad; settings: scale 0 to 100 (0 no effect, 100 complete control)
Description: as §2, §3

[10] = test system: barnyardgrass (Echinochloa crus-galli); experiment: Test C flooded paddy test: barnyardgrass; settings: scale 0 to 100 (0 no effect, 100 complete control)
Description: as §2, §3

[11] = 125 g ai/ha, 0 to 100 scale, 0 is no effect, 100 is complete control
[12] = 500 g ai/ha, visual rating on 0 to 100 scale (0 no effect, 100 complete control), approximately ten days
[13] = 125 g ai/ha, 0 to 100 scale (0 no effect, 100 complete control)
[14] = 500 g ai/ha, 0 to 100 scale, 0 is no effect, 100 is complete control
[15] = Flood (flooded paddy test), 62 g ai/ha, visual rating after 13 to 15 days
[16] = Flood (flooded paddy test), 250 g ai/ha, visual rating after 13 to 15 days
[17] = Flood (flooded paddy test), 125 g ai/ha, visual rating after 13 to 15 days

Cc1nn(-c2ccc(F)cc2)nc1Cn1ccc(C(F)(F)F)n1 [Compound 2]
Barnyardgrass plant response rating [1, 11]: 0 | Barnyardgrass plant response rating [1, 12]: 10 | Plant response rating, Barnyardgrass [1, 13]: 0 | Plant response rating, Barnyardgrass [1, 14]: 10 | Crabgrass, Large plant response rating [2, 11]: 10 | Crabgrass, Large plant response rating [2, 12]: 20 | Plant response rating, Crabgrass, Large [2, 13]: 10 | Plant response rating, Crabgrass, Large [2, 14]: 90 | Foxtail, Giant plant response rating [3, 11]: 10 | Foxtail, Giant plant response rating [3, 12]: 20 | Plant response rating, Foxtail, Giant [3, 13]: 10 | Plant response rating, Foxtail, Giant [3, 14]: 50 | Morningglory plant response rating [4, 11]: 10 | Morningglory plant response rating [4, 12]: 20 | Plant response rating, Morningglory [4, 13]: 0 | Plant response rating, Morningglory [4, 14]: 0 | Pigweed plant response rating [5, 11]: 30 | Pigweed plant response rating [5, 12]: 90 | Plant response rating, Pigweed [5, 13]: 0 | Plant response rating, Pigweed [5, 14]: 60 | Velvetleaf plant response rating [6, 11]: 0 | Velvetleaf plant response rating [6, 12]: 0 | Plant response rating, Velvetleaf [6, 13]: 0 | Plant response rating, Velvetleaf [6, 14]: 0 | Wheat plant response rating [7, 11]: 0 | Wheat plant response rating [7, 12]: 10 | Plant response rating, Wheat [7, 13]: 0 | Plant response rating, Wheat [7, 14]: 0 | Corn plant response rating (corn (Zea mays); [11]): 10 | Corn plant response rating (corn (Zea mays); [12]): 10 | Plant response rating, Corn (corn (Zea mays); [13]): 0 | Plant response rating, Corn (corn (Zea mays); [14]): 0 | Plant response rating, Rice (rice (Oryza sativa); [15]): 0 | Plant response rating, Rice (rice (Oryza sativa); [16]): 0 | Plant response rating, Sedge, Umbrella [8, 15]: 0 | Plant response rating, Sedge, Umbrella [8, 16]: 70 | Plant response rating, Ducksalad [9, 15]: 0 | Plant response rating, Ducksalad [9, 16]: 0 | Plant response rating, Barnyardgrass [10, 15]: 0 | Plant response rating, Barnyardgrass [10, 16]: 0

Cc1nn(-c2ccc(C(F)(F)F)cn2)nc1Cn1ccc(C(F)(F)F)n1 [Compound 7]
Barnyardgrass plant response rating [1, 11]: 30 | Barnyardgrass plant response rating [1, 12]: 90 | Plant response rating, Barnyardgrass [1, 13]: 40 | Plant response rating, Barnyardgrass [1, 14]: 100 | Crabgrass, Large plant response rating [2, 11]: 70 | Crabgrass, Large plant response rating [2, 12]: 90 | Plant response rating, Crabgrass, Large [2, 13]: 100 | Plant response rating, Crabgrass, Large [2, 14]: 100 | Foxtail, Giant plant response rating [3, 11]: 50 | Foxtail, Giant plant response rating [3, 12]: 90 | Plant response rating, Foxtail, Giant [3, 13]: 90 | Plant response rating, Foxtail, Giant [3, 14]: 100 | Morningglory plant response rating [4, 11]: 90 | Morningglory plant response rating [4, 12]: 90 | Plant response rating, Morningglory [4, 13]: 30 | Plant response rating, Morningglory [4, 14]: 80 | Pigweed plant response rating [5, 11]: 100 | Pigweed plant response rating [5, 12]: 100 | Plant response rating, Pigweed [5, 13]: 100 | Plant response rating, Pigweed [5, 14]: 100 | Velvetleaf plant response rating [6, 11]: 30 | Velvetleaf plant response rating [6, 12]: 70 | Plant response rating, Velvetleaf [6, 13]: 30 | Plant response rating, Velvetleaf [6, 14]: 60 | Wheat plant response rating [7, 11]: 0 | Wheat plant response rating [7, 12]: 20 | Plant response rating, Wheat [7, 13]: 0 | Plant response rating, Wheat [7, 14]: 0 | Corn plant response rating (corn (Zea mays); [11]): 10 | Corn plant response rating (corn (Zea mays); [12]): 50 | Plant response rating, Corn (corn (Zea mays); [13]): 0 | Plant response rating, Corn (corn (Zea mays); [14]): 30 | Plant response rating, Rice (rice (Oryza sativa); [15]): 0 | Plant response rating, Rice (rice (Oryza sativa); [17]): 0 | Plant response rating, Rice (rice (Oryza sativa); [16]): 15 | Plant response rating, Rice (rice (Oryza sativa); Flood, 31 g ai/ha): 0 | Plant response rating, Sedge, Umbrella [8, 15]: 40 | Plant response rating, Sedge, Umbrella [8, 17]: 50 | Plant response rating, Sedge, Umbrella [8, 16]: 85 | Plant response rating, Sedge, Umbrella ([8]; Flood, 31 g ai/ha): 30 | Plant response rating, Ducksalad [9, 15]: 0 | Plant response rating, Ducksalad [9, 17]: 30 | Plant response rating, Ducksalad [9, 16]: 70 | Plant response rating, Ducksalad ([9]; Flood, 31 g ai/ha): 0 | Plant response rating, Barnyardgrass [10, 15]: 0 | Plant response rating, Barnyardgrass [10, 17]: 0 | Plant response rating, Barnyardgrass [10, 16]: 20 | Plant response rating, Barnyardgrass ([10]; Flood, 31 g ai/ha): 0

Cc1nn(-c2ccc(C(F)(F)F)cc2)nc1Cn1ccc(C(F)(F)C(F)(F)F)n1 [Compound 12]
Barnyardgrass plant response rating [1, 11]: 30 | Barnyardgrass plant response rating [1, 12]: 80 | Plant response rating, Barnyardgrass [1, 13]: 30 | Plant response rating, Barnyardgrass [1, 14]: 80 | Crabgrass, Large plant response rating [2, 11]: 50 | Crabgrass, Large plant response rating [2, 12]: 90 | Plant response rating, Crabgrass, Large [2, 13]: 90 | Plant response rating, Crabgrass, Large [2, 14]: 100 | Foxtail, Giant plant response rating [3, 11]: 50 | Foxtail, Giant plant response rating [3, 12]: 70 | Plant response rating, Foxtail, Giant [3, 13]: 80 | Plant response rating, Foxtail, Giant [3, 14]: 100 | Morningglory plant response rating [4, 11]: 70 | Morningglory plant response rating [4, 12]: 100 | Plant response rating, Morningglory [4, 13]: 10 | Plant response rating, Morningglory [4, 14]: 40 | Pigweed plant response rating [5, 11]: 100 | Pigweed plant response rating [5, 12]: 100 | Plant response rating, Pigweed [5, 13]: 80 | Plant response rating, Pigweed [5, 14]: 100 | Velvetleaf plant response rating [6, 11]: 70 | Velvetleaf plant response rating [6, 12]: 100 | Plant response rating, Velvetleaf [6, 13]: 60 | Plant response rating, Velvetleaf [6, 14]: 70 | Wheat plant response rating [7, 11]: 10 | Wheat plant response rating [7, 12]: 30 | Plant response rating, Wheat [7, 13]: 0 | Plant response rating, Wheat [7, 14]: 0 | Corn plant response rating (corn (Zea mays); [11]): 20 | Corn plant response rating (corn (Zea mays); [12]): 30 | Plant response rating, Corn (corn (Zea mays); [13]): 0 | Plant response rating, Corn (corn (Zea mays); [14]): 10 | Plant response rating, Rice (rice (Oryza sativa); [15]): 0 | Plant response rating, Rice (rice (Oryza sativa); [16]): 25 | Plant response rating, Sedge, Umbrella [8, 15]: 50 | Plant response rating, Sedge, Umbrella [8, 16]: 80 | Plant response rating, Ducksalad [9, 15]: 60 | Plant response rating, Ducksalad [9, 16]: 70 | Plant response rating, Barnyardgrass [10, 15]: 40 | Plant response rating, Barnyardgrass [10, 16]: 60
